{
  "source": "patent US9101539B2",
  "about": "“Intranasal pharmaceutical compositions with improved pharmacokinetics” (SHIN NIPPON BIOMEDICAL LABORATORIES, LTD., priority 2009, dated 2015)",
  "key": {"[1]": {"assay": "Zolmitriptan pharmacokinetics (plasma concentration versus time) in rhesus monkeys", "assay_type": "in vivo", "details": "5 mg/animal; for Tmax: intranasal dry powder, n=2", "method": "The pharmacokinetics of a zolmitriptan liquid nasal spray and a dry powder formulation were studied in two groups of rhesus monkeys. One group, n=2, was administered a nasal spray of zolmitriptan (Zomig®, 5 mg/100 μl in an aqueous buffered solution). A second, n=2, was administered intranasal zolmitriptan freebase with a particle size of <15 μm. The administered dose was 5 mg/animal.\nOne group, n=2, was administered intranasal zolmitriptan freebase with a particle size of <15 μm. Administered dose was 5 mg/animal. […] Administered dose was 5 mg/animal."}, "[2]": {"assay": "in vivo", "details": "rhesus monkey, inhaled or intranasal", "method": "Blood was obtained at 10, 20, 30, 60, 120, 240, and 480 minutes post-administration from the monkeys administered the solid dosage form. For the monkeys treated with the nasal spray, blood was obtained 5, 10, 20, 30, 60, 120, 240, and 480 minutes post-treatment.\nBlood was obtained at 5, 10, 20, 30, 60, 120, and 240 minutes post-administration.\nAdministered dose was 6 mg/animal. […] Blood was obtained at 5, 10, 20, 30, 60, 120, and 240 minutes post-administration.\n(§1) Administered dose was 6 mg/animal. […] Administered dose was 6 mg/animal. Blood was obtained at 5, 10, 20, 30, 60, 120, and 240 minutes post-administration.\nTotal dose was 6 mg/animal. Blood was obtained at 5, 10, 20, 30, 60, 120, and 240 minutes post-administration.\nas §1, §1\n(§2) Administered dose was 6 mg/animal. […] Administered dose was 6 mg/animal. […] Blood was obtained at 5, 10, 20, 30, 60, 120, and 240 minutes post-administration.\nas §2"}, "[3]": {"details": "intranasal dry powder <15 μm, versus Zomig nasal spray"}},
  "data": [
    {"smiles": "CN(C)CCc1c[nH]c2ccc(C[C@H]3COC(=O)N3)cc12", "note": "[zolmitriptan freebase]", "values": [
      {"measurement": "BA compared with the liquid spray", "setting": "[1]; [3]", "value": "significantly increased"},
      {"measurement": "Cmax compared with the liquid spray", "setting": "[1]; [3]", "value": "significantly increased"},
      {"measurement": "Tmax", "setting": "[1]; 50% of the particles <15 μm and 50% 38 μm-100 μm", "value": 20, "unit": "min"},
      {"measurement": "Tmax", "setting": "[1]; particle size <15 μm", "value": 10, "unit": "min"}
    ]},
    {"smiles": "CNS(=O)(=O)Cc1ccc2[nH]cc(CCN(C)C)c2c1", "note": "[sumatriptan freebase]", "values": [
      {"measurement": "Cmax among the formulations tested that contained freebase", "setting": "[2]", "value": "highest"}
    ]},
    {"smiles": "CNS(=O)(=O)Cc1ccc2[nH]cc(CCN(C)C)c2c1", "note": "[sumatriptan succinate]", "values": [
      {"measurement": "Cmax", "setting": "[2]; 6 mg, Cmax", "value": 696, "unit": "ng/mL"},
      {"measurement": "Tmax", "setting": "[2]; 6 mg, Tmax", "value": 7.5, "unit": "min"}
    ]}
  ]
}
